US5665704A, “Receptor specific atrial natriuretic peptides” (Genentech, Inc., priority 1995, dated 1997)
Like-named read-outs stand apart in the source and are kept apart here. Bridge positions count the residues as written; N and C are the ends. Square brackets hold non-standard residues; d marks the D form. Peptide text beside a SMILES is read from it. hCys = N[C@@H](CCS)C(=O)O

Tests used:
hNPR-C = target: T1, hNPR-C (Homo sapiens, UniProt P17342); assay: Binding affinity for clearance receptor hNPR-C
T1 sequence (P17342 27-541): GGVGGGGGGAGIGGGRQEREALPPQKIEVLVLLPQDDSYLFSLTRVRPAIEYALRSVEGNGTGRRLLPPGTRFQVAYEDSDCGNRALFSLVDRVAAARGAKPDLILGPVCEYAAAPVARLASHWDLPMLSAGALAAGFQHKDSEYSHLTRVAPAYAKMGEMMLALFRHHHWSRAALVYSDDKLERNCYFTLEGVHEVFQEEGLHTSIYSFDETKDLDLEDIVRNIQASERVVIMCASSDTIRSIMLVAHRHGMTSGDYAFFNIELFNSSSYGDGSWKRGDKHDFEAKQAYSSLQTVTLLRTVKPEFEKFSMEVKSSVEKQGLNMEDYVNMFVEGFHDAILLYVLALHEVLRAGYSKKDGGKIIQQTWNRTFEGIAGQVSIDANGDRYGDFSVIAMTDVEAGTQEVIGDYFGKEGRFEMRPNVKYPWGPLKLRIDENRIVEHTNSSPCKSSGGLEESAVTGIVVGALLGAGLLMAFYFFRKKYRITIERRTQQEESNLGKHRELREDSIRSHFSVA
From the text: For assay systems to measure binding of hANF and the compounds of this invention to hNPR-C see: Schank, D. B., et al., Biochem. Biophys. Res. Comm. 127:433-442 (1985); Scarborough, R. M., J. Biol. Chem. 261:12960-12964 and WO 90/01940.

hNPR-A = target: T2, hNPR-A (Homo sapiens, UniProt P16066); assay: Binding affinity for hNPR-A (competitive displacement of I^125 labeled wild-type ANF); settings: Table I; read-out: Binding Affinity IC50 (pM) hNPR-A
T2 sequence (P16066 33-1061): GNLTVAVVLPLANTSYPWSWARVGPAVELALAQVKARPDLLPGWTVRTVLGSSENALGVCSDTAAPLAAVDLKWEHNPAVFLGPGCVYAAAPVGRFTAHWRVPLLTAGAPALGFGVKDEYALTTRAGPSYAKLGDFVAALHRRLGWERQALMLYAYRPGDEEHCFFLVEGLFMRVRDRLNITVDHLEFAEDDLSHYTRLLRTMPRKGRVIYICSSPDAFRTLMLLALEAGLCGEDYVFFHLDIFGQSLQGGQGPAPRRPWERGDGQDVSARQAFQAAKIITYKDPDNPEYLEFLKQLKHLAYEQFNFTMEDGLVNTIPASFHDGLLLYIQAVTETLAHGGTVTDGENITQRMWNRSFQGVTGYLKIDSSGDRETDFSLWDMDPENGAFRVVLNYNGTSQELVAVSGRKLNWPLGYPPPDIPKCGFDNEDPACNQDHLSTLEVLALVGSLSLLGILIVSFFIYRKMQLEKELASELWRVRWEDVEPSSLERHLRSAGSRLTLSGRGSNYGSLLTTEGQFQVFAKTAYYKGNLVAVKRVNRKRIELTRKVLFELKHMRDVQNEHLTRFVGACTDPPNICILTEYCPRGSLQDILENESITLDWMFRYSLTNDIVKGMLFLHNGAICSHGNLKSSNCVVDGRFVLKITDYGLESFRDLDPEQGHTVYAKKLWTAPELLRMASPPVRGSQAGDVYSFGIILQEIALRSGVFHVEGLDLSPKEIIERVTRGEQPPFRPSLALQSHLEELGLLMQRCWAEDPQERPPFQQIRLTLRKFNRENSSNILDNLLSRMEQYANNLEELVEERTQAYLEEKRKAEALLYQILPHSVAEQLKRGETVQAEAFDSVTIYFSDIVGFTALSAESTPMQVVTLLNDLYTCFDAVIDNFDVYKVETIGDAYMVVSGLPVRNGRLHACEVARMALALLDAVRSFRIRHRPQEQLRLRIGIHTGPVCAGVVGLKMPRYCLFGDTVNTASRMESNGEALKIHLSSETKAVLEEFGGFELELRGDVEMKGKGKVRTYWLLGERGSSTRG

[1] = Table I, read-out: Binding Affinity IC50 (pM) hNPR-C

## CC[C@H](C)[C@@H]1NC(=O)[C@H](CCCNC(=N)N)NC(=O)[C@H](CC(=O)O)NC(=O)[C@H]([C@@H](C)CC)NC(=O)[C@H](CCCNC(=N)N)NC(=O)CNC(=O)CNC(=O)[C@H](Cc2ccccc2)NC(=O)[C@@H](NC(=O)[C@H](CO)NC(=O)[C@H](CO)NC(=O)[C@H](CCCNC(=N)N)NC(=O)[C@H](CCCNC(=N)N)NC(=O)[C@H](CC(C)C)NC(=O)[C@@H](N)CO)CSSC[C@@H](C(=O)N[C@@H](CC(N)=O)C(=O)N[C@@H](CO)C(=O)N[C@@H](Cc2ccccc2)C(=O)N[C@@H](CCCNC(=N)N)C(=O)N[C@@H](Cc2ccc(O)cc2)C(=O)O)NC(=O)CNC(=O)[C@H](CC(C)C)NC(=O)CNC(=O)[C@H](CO)NC(=O)[C@H](CCC(N)=O)NC(=O)[C@H](C)NC(=O)[C@H](CCCNC(=N)N)NC1=O [ANF24]
hNPR-C; [1]
  IC50: 5640 pM

## CC[C@H](C)[C@@H]1NC(=O)[C@H](CO)NC(=O)[C@H](CC(=O)O)NC(=O)[C@H]([C@@H](C)CC)NC(=O)[C@H](CCCNC(=N)N)NC(=O)CNC(=O)CNC(=O)[C@H](Cc2ccccc2)NC(=O)[C@@H](NC(=O)[C@H](CO)NC(=O)[C@H](CO)NC(=O)[C@H](CCCNC(=N)N)NC(=O)[C@H](CCCNC(=N)N)NC(=O)[C@H](CC(C)C)NC(=O)[C@@H](N)CO)CSSC[C@@H](C(=O)N[C@@H](CC(N)=O)C(=O)N[C@@H](CO)C(=O)N[C@@H](Cc2ccccc2)C(=O)N[C@@H](CCCNC(=N)N)C(=O)N[C@@H](Cc2ccc(O)cc2)C(=O)O)NC(=O)CNC(=O)[C@H](CC(C)C)NC(=O)CNC(=O)[C@H](CO)NC(=O)[C@H](CCC(N)=O)NC(=O)[C@H](C)NC(=O)[C@H](CCCNC(=N)N)NC1=O [ANF25] (H-SLRRSSCFGGRIDSIRAQSGLGCNSFRY-OH; disulfide 7-23)
hNPR-A
  IC50: 56 pM
hNPR-C; [1]
  IC50: 3310 pM

## CC[C@H](C)[C@@H]1NC(=O)[C@H](CCCNC(=N)N)NC(=O)[C@H](CC(=O)O)NC(=O)[C@H]([C@@H](C)CC)NC(=O)[C@H](CO)NC(=O)CNC(=O)[C@H]([C@@H](C)O)NC(=O)[C@H](Cc2ccccc2)NC(=O)[C@@H](NC(=O)[C@H](CO)NC(=O)[C@H](CO)NC(=O)[C@H](CCCNC(=N)N)NC(=O)[C@H](CCCNC(=N)N)NC(=O)[C@H](CC(C)C)NC(=O)[C@@H](N)CO)CSSC[C@@H](C(=O)N[C@@H](CC(N)=O)C(=O)N[C@@H](CO)C(=O)N[C@@H](Cc2ccccc2)C(=O)N[C@@H](CCCNC(=N)N)C(=O)N[C@@H](Cc2ccc(O)cc2)C(=O)O)NC(=O)CNC(=O)[C@H](CC(C)C)NC(=O)CNC(=O)[C@H](CO)NC(=O)[C@H](CCC(N)=O)NC(=O)[C@H](C)NC(=O)[C@H](CCCNC(=N)N)NC1=O [ANF27]
hNPR-C; [1]
  IC50: 1e+06 pM

## CC[C@H](C)[C@@H]1NC(=O)[C@H](CCCNC(=N)N)NC(=O)[C@H](CC(=O)O)NC(=O)[C@H]([C@@H](C)CC)NC(=O)[C@H](CO)NC(=O)CNC(=O)[C@H]([C@@H](C)O)NC(=O)[C@H](Cc2ccccc2)NC(=O)[C@@H](NC(=O)[C@H](CO)NC(=O)[C@H](CO)NC(=O)[C@H](CCCNC(=N)N)NC(=O)[C@H](CCCNC(=N)N)NC(=O)[C@H](CC(C)C)NC(=O)[C@@H](N)CO)CSSC[C@@H](C(=O)N[C@@H](CC(N)=O)C(=O)N[C@@H](CO)C(=O)N[C@@H](Cc2ccccc2)C(=O)N[C@@H](CCCNC(=N)N)C(=O)N[C@@H](Cc2ccc(O)cc2)C(=O)O)NC(=O)CNC(=O)[C@H](CC(C)C)NC(=O)CNC(=O)[C@H](CO)NC(=O)[C@@H]2CCCN2C(=O)[C@H](C)NC(=O)[C@H](CCCNC(=N)N)NC1=O [ANF31] (H-SLRRSSCFTGSIDRIRAPSGLGCNSFRY-OH; disulfide 7-23)
hNPR-A
  IC50: 52 pM
hNPR-C; [1]
  IC50: 3.21e+06 pM

## CC[C@H](C)[C@@H]1NC(=O)[C@H](CCCNC(=N)N)NC(=O)[C@H](CC(=O)O)NC(=O)[C@H](CCSC)NC(=O)[C@H](CO)NC(=O)CNC(=O)[C@H]([C@@H](C)O)NC(=O)[C@H](Cc2ccccc2)NC(=O)[C@@H](NC(=O)[C@H](CO)NC(=O)[C@H](CO)NC(=O)[C@H](CCCNC(=N)N)NC(=O)[C@H](CCCNC(=N)N)NC(=O)[C@H](CC(C)C)NC(=O)[C@@H](N)CO)CSSC[C@@H](C(=O)N[C@@H](CC(N)=O)C(=O)N[C@@H](CO)C(=O)N[C@@H](Cc2ccccc2)C(=O)N[C@@H](CCCNC(=N)N)C(=O)N[C@@H](Cc2ccc(O)cc2)C(=O)O)NC(=O)CNC(=O)[C@H](CC(C)C)NC(=O)CNC(=O)[C@H](CO)NC(=O)[C@H](CCC(N)=O)NC(=O)[C@H](C)NC(=O)CNC1=O [ANF50] (H-SLRRSSCFTGSMDRIGAQSGLGCNSFRY-OH; disulfide 7-23)
hNPR-A
  IC50: 570 pM
hNPR-C; [1]
  IC50: 251000 pM

## CC[C@H](C)[C@@H]1NC(=O)[C@H](CCCNC(=N)N)NC(=O)[C@H](CC(=O)O)NC(=O)[C@H](CCSC)NC(=O)[C@@H]2CCCN2C(=O)[C@H](CCCNC(=N)N)NC(=O)[C@H](CCC(=O)O)NC(=O)[C@H](Cc2ccccc2)NC(=O)[C@@H](NC(=O)[C@H](CO)NC(=O)[C@H](CO)NC(=O)[C@H](CCCNC(=N)N)NC(=O)[C@H](CCCNC(=N)N)NC(=O)[C@H](CC(C)C)NC(=O)[C@@H](N)CO)CSSC[C@@H](C(=O)N[C@@H](CC(N)=O)C(=O)N[C@@H](CO)C(=O)N[C@@H](Cc2ccccc2)C(=O)N[C@@H](CCCNC(=N)N)C(=O)N[C@@H](Cc2ccc(O)cc2)C(=O)O)NC(=O)CNC(=O)[C@H](CC(C)C)NC(=O)CNC(=O)[C@H](CO)NC(=O)[C@H](CCC(N)=O)NC(=O)[C@H](C)NC(=O)CNC1=O [ANF51] (H-SLRRSSCFERPMDRIGAQSGLGCNSFRY-OH; disulfide 7-23)
hNPR-A
  IC50: 4550 pM
hNPR-C; [1]
  IC50: 32200 pM

## CC[C@H](C)[C@@H]1NC(=O)[C@H](CO)NC(=O)[C@H](CC(=O)O)NC(=O)[C@H](CC(C)C)NC(=O)[C@H](CO)NC(=O)CNC(=O)[C@H]([C@@H](C)O)NC(=O)[C@H](Cc2ccccc2)NC(=O)[C@@H](NC(=O)[C@H](CO)NC(=O)[C@H](CO)NC(=O)[C@H](CCCNC(=N)N)NC(=O)[C@H](CC(=O)O)NC(=O)[C@H](CC(C)C)NC(=O)[C@@H](N)CO)CSSC[C@@H]2NC(=O)CNC(=O)[C@H](CC(C)C)NC(=O)CNC(=O)[C@H](CO)NC(=O)[C@H](CCSSCC[C@@H](C(=O)O)NC(=O)[C@H](CCCNC(=N)N)NC(=O)[C@H](Cc3ccccc3)NC(=O)[C@H](CO)NC(=O)[C@H](CC(N)=O)NC2=O)NC(=O)[C@H](C)NC(=O)[C@H](CCCNC(=N)N)NC1=O [ANF70] (H-SLDRSSCFTGSLDSIRA[hCys]SGLGCNSFR[hCys]-OH; disulfide 7-23, 18-28)
hNPR-A
  IC50: 3300 pM

## CC[C@H](C)[C@@H]1NC(=O)[C@H](CCCNC(=N)N)NC(=O)[C@H](CC(=O)O)NC(=O)[C@H]([C@@H](C)CC)NC(=O)[C@H](CO)NC(=O)CNC(=O)[C@@H](C)NC(=O)[C@H](Cc2ccccc2)NC(=O)[C@@H](NC(=O)[C@H](CO)NC(=O)[C@H](CO)NC(=O)[C@H](CCCNC(=N)N)NC(=O)[C@H](CCCNC(=N)N)NC(=O)[C@H](CC(C)C)NC(=O)[C@@H](N)CO)CSSC[C@@H](C(=O)N[C@@H](CC(N)=O)C(=O)N[C@@H](CO)C(=O)N[C@@H](Cc2ccccc2)C(=O)N[C@@H](CCCNC(=N)N)C(=O)N[C@@H](Cc2ccc(O)cc2)C(=O)O)NC(=O)CNC(=O)[C@H](CC(C)C)NC(=O)CNC(=O)[C@H](CO)NC(=O)[C@H](CCC(N)=O)NC(=O)[C@H](C)NC(=O)[C@H](CCCNC(=N)N)NC1=O [ANF78]
hNPR-C
  IC50: 8640 pM
